From ChEMBL document CHEMBL1201862, “PubChem BioAssay data set” (2004)
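96-well plates; 48 h exposure; 5 concentrations. Endpoints by linear interpolation between flanking doses. Not reached: highest tested concentration assigned. GI50 marks 50% less growth.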 The source made the active and inactive calls. No stated cut-off is given here; in the data, active = GI50 up to about 1.1 µM and inactive = higher.

Experiments:
Test in all cases: NCI tumour cell line growth inhibition, 48 h
NCI-H23 = tested on: NCI-H23
OVCAR-3 = tested on: OVCAR-3
HCT-15 = tested on: HCT-15
HCC 2998 = tested on: HCC 2998
PC-3 = tested on: PC-3
ACHN = tested on: ACHN
MCF7 = tested on: MCF7
RXF 393 = tested on: RXF 393
HOP-92 = tested on: HOP-92
SK-MEL-5 = tested on: SK-MEL-5
NCI/ADR-RES = tested on: NCI/ADR-RES
TK-10 = tested on: TK-10
K562 = tested on: K562
COLO 205 = tested on: COLO 205
A549 = tested on: A549
SN12C = tested on: SN12C
HCT-116 = tested on: HCT-116
NCI-H522 = tested on: NCI-H522
SK-MEL-28 = tested on: SK-MEL-28
SF-539 = tested on: SF-539

Row | Compound | GI50 (NCI-H23) | GI50 (OVCAR-3) | GI50 (HCT-15) [µM] | GI50 (HCC 2998) | GI50 (PC-3) | GI50 (ACHN) | GI50 (MCF7) | GI50 (RXF 393) | GI50 (HOP-92) | GI50 (SK-MEL-5) | GI50 (NCI/ADR-RES) | GI50 (TK-10) | GI50 (K562) | GI50 (COLO 205) | GI50 (A549) | GI50 (SN12C) | GI50 (HCT-116) | GI50 (NCI-H522) | GI50 (SK-MEL-28) | GI50 (SF-539)
1 | Cc1nc2ccc(Cl)cc2c2c1CCN2c1ccccc1 | 14.1 µM (inactive) | 10.3 µM (inactive) | 17.3 | 12.1 µM (inactive) | 10.6 µM (inactive) | 16.9 µM (inactive) | 15.1 µM (inactive) | 3.47 µM (inactive) | 8.59 µM (inactive) | 7.53 µM (inactive) | 11.7 µM (inactive) | 12.7 µM (inactive) | 5.05 µM (inactive) | 2.76 µM (inactive) | 15 µM (inactive) | 0.975 µM (active) | 3.61 µM (inactive) | 11.7 µM (inactive) | 14 µM (inactive) | 13.4 µM (inactive)
2 | COC(=O)C1SC(SC)=NC12c1ccccc1Nc1ccccc12 (stereo not given) | 19.8 µM (inactive) | 18.2 µM (inactive) | 29.4 | 24.5 µM (inactive) | 28.3 µM (inactive) | 36.3 µM (inactive) | 27.7 µM (inactive) | 67.3 µM (inactive) | 20.8 µM (inactive) | 17.2 µM (inactive) | 39.9 µM (inactive) | 50 µM (inactive) | 23.9 µM (inactive) | 20.5 µM (inactive) | 28.3 µM (inactive) | 30.7 µM (inactive) | 31.7 µM (inactive) | 19.5 µM (inactive) | 21.1 µM (inactive) | 17.5 µM (inactive)
3 | O=C(NCCSSCCNC(=O)/C(Cc1ccc(O)c(Br)c1)=N/O)/C(Cc1ccc(O)c(Br)c1)=N/O [PSAMMAPLIN A] | 3.2 µM (inactive) | 1.87 µM (inactive) | 4.89 | 2.17 µM (inactive) | 1.61 µM (inactive) | 1.62 µM (inactive) | 2.02 µM (inactive) | 0.796 µM (active) | 4.01 µM (inactive) | 0.927 µM (active) | 1.29 µM (inactive) | 2.92 µM (inactive) | 1.81 µM (inactive) | 1.64 µM (inactive) | 1.44 µM (inactive) | 1.43 µM (inactive) | 1.39 µM (inactive) | 0.682 µM (active) | 3.16 µM (inactive) | 1.72 µM (inactive)
4 | O=C1C(NCCc2ccc(O)c(O)c2)=CC(=O)c2ncccc21 | 7.36 µM (inactive) | 2.06 µM (inactive) | 13.4 | 13 µM (inactive) | 21.9 µM (inactive) | 11.1 µM (inactive) | 4.02 µM (inactive) | 13.8 µM (inactive) | 20.1 µM (inactive) | 2.93 µM (inactive) | 14.4 µM (inactive) | 36.2 µM (inactive) | 2.42 µM (inactive) | 14.7 µM (inactive) | 14.9 µM (inactive) | 10.1 µM (inactive) | 12.2 µM (inactive) | 2.36 µM (inactive) | 11.8 µM (inactive) | 14.2 µM (inactive)
5 | CC[C@@H]1/C=C/C=C/C[C@H](C)[C@@H](O)[C@@H](C)C(=O)[C@H](C)[C@@H](O)[C@H](C)C(=O)[C@H](C)[C@@H](O)[C@H](C)/C=C/C(=O)O[C@H]2[C@@H](C)[C@@H](CC1)O[C@@]1(CC[C@@H](C)[C@@H](CC(C)O)O1)[C@@H]2C (stereo not given in full) | 0.00361 µM (active) | 2.62 µM (inactive) | 4.06 | 1.78 µM (inactive) | 0.00678 µM (active) | 0.17 µM (active) | 0.00269 µM (active) | 3.07 µM (inactive) | 3.25 µM (inactive) | < 0.0025 µM (active) | 0.596 µM (active) | 0.528 µM (active) | 0.00504 µM (active) | 0.00408 µM (active) | 0.012 µM (active) | 1.94 µM (inactive) | 2.58 µM (inactive) | 0.0188 µM (active) | 10.6 µM (inactive) | 6.46 µM (inactive)
6 | Nc1ncn(C2OC(COP(=O)(O)O)C(O)C2O)c(=O)n1 (stereo not given) | > 81.8 µM (inactive) | > 100 µM (inactive) | > 100 | > 100 µM (inactive) | > 100 µM (inactive) | 54.6 µM (inactive) | > 71 µM (inactive) | > 100 µM (inactive) | > 100 µM (inactive) | > 100 µM (inactive) | > 100 µM (inactive) | > 100 µM (inactive) | > 90.8 µM (inactive) | > 100 µM (inactive) | 45.9 µM (inactive) | 63.5 µM (inactive) | 75.9 µM (inactive) | > 87.9 µM (inactive) | > 100 µM (inactive) | > 100 µM (inactive)
7 | O=S(=O)(N/C(=N\O)Nc1ccc(Cl)cc1)c1ccccc1 | 16.2 µM (inactive) | 1.23 µM (inactive) | 7.66 | 7.1 µM (inactive) | 13.3 µM (inactive) | 12.2 µM (inactive) | 12.6 µM (inactive) | 2.77 µM (inactive) | 2.94 µM (inactive) | 9.04 µM (inactive) | 12 µM (inactive) | 14 µM (inactive) | 6.64 µM (inactive) | 20.4 µM (inactive) | 21.2 µM (inactive) | 11.7 µM (inactive) | 10.7 µM (inactive) | 1.03 µM (active) | 10.9 µM (inactive) | 4.22 µM (inactive)
8 | Cc1ccc(C2SC(=N)Nc3c2c(C)nn3C(=O)c2ccncc2)cc1 (stereo not given) | > 10 µM (inactive) | > 10 µM (inactive) | > 10 | > 10 µM (inactive) | > 10 µM (inactive) | > 10 µM (inactive) | > 10 µM (inactive) | > 10 µM (inactive) | > 10 µM (inactive) | > 10 µM (inactive) | > 10 µM (inactive) | > 10 µM (inactive) | > 10 µM (inactive) | > 10 µM (inactive) | > 10 µM (inactive) | > 10 µM (inactive) | > 10 µM (inactive) | > 10 µM (inactive) | > 10 µM (inactive) | > 10 µM (inactive)
9 | CN1CCc2cc(N)cc3c2C1Cc1ccc2c(c1-3)OCO2 (stereo not given) | 34 µM (inactive) | 27.1 µM (inactive) | 32.3 | 19.6 µM (inactive) | 42.7 µM (inactive) | 26.3 µM (inactive) | 29.4 µM (inactive) | 27.4 µM (inactive) | 17.7 µM (inactive) | 20.4 µM (inactive) | 24.3 µM (inactive) | 45.8 µM (inactive) | 27 µM (inactive) | 30.1 µM (inactive) | 37.2 µM (inactive) | 26.9 µM (inactive) | 27.7 µM (inactive) | 18.1 µM (inactive) | 27.2 µM (inactive) | 33.9 µM (inactive)
10 | Oc1c(Cl)c(Cl)c(O)c(CCNc2nccs2)c1Cl | 18.4 µM (inactive) | 9.35 µM (inactive) | 13.7 | 16.1 µM (inactive) | 17.2 µM (inactive) | 6.44 µM (inactive) | 2.41 µM (inactive) | 7.23 µM (inactive) | 32.4 µM (inactive) | 2.2 µM (inactive) | 19.6 µM (inactive) | 11.7 µM (inactive) | 4.58 µM (inactive) | 11.3 µM (inactive) | 21.6 µM (inactive) | 19 µM (inactive) | 7.66 µM (inactive) | 2.02 µM (inactive) | 20.5 µM (inactive) | 1.68 µM (inactive)
11 | Cc1cc(N(CCC#N)CCC#N)ccc1C(=N/NC(=O)c1cc(Cl)ccc1O)/N=N/c1cccc(Cl)c1 | 13.7 µM (inactive) | 3.56 µM (inactive) | 6.62 | 12 µM (inactive) | 10.1 µM (inactive) | 13 µM (inactive) | 8.79 µM (inactive) | 10.7 µM (inactive) | 11.8 µM (inactive) | 13.7 µM (inactive) | 16.3 µM (inactive) | 16.5 µM (inactive) | 15.7 µM (inactive) | 5.96 µM (inactive) | 17.1 µM (inactive) | 19.1 µM (inactive) | 12.2 µM (inactive) | 13.5 µM (inactive) | 16 µM (inactive) | 30.1 µM (inactive)
12 | CN(C)CCSCCO | > 100 µM (inactive) | > 100 µM (inactive) | > 100 | > 100 µM (inactive) | > 100 µM (inactive) | > 100 µM (inactive) | > 100 µM (inactive) | > 100 µM (inactive) | > 100 µM (inactive) | > 100 µM (inactive) | > 100 µM (inactive) | > 100 µM (inactive) | > 100 µM (inactive) | > 100 µM (inactive) | > 100 µM (inactive) | > 100 µM (inactive) | > 100 µM (inactive) | > 100 µM (inactive) | > 100 µM (inactive) | > 100 µM (inactive)
13 | O=C(NCCN1CCOCC1)c1ccc2cc(C(=O)N3CC(CCl)c4ccc([N+](=O)[O-])cc43)[nH]c2c1 (stereo not given) | 43.6 µM (inactive) | 16.9 µM (inactive) | 19.1 | 15 µM (inactive) | 15 µM (inactive) | 12.4 µM (inactive) | 17.5 µM (inactive) | 5.01 µM (inactive) | 8.24 µM (inactive) | 2.54 µM (inactive) | > 100 µM (inactive) | 16.9 µM (inactive) | 19.4 µM (inactive) | 25 µM (inactive) | 5.19 µM (inactive) | 19.2 µM (inactive) | 13.5 µM (inactive) | 4.67 µM (inactive) | 6.62 µM (inactive) | 60.4 µM (inactive)
14 | Cc1cc2nc3c(C#N)c(C)c(CCCl)c(Cl)n3c2cc1C | 2.12 µM (inactive) | 1.75 µM (inactive) | 1.87 | 2.97 µM (inactive) | 5.6 µM (inactive) | 5.3 µM (inactive) | 2.9 µM (inactive) | 1.81 µM (inactive) | 2.04 µM (inactive) | 4.39 µM (inactive) | 3.18 µM (inactive) | 2.18 µM (inactive) | 2.39 µM (inactive) | 3.69 µM (inactive) | 7.19 µM (inactive) | 1.92 µM (inactive) | 1.57 µM (inactive) | 12 µM (inactive) | 4.52 µM (inactive) | 2.51 µM (inactive)
